Tests used:
Details in all cases: incubation time: 72 h
[1] = test system: HDQ-P1; assay: normalised viability (% of control), CellTiter-Blue; higher = more viable cells (100 = DMSO, 0 = benzethonium chloride kill control)
Description: (§1)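 DSRT, CellTiter-Blue viability, 72 h incubation. Signal is normalised to DMSO and benzethonium chloride controls. Value is the normalised response at dose 1.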

[2] = test system: CAL-85-1; assay: as above
Description: as §1

[3] = test system: MFM-223; assay: as above
Description: as §1

[4] = test system: HCC1937; assay: as above
Description: as §1

[5] = test system: CAL-120; assay: as above
Description: as §1

[6] = test system: DU-4475; assay: as above
Description: as §1

[7] = test system: MDA-MB-468; assay: as above
Description: as §1

[8] = test system: Hs578T; assay: as above
Description: as §1

[9] = test system: MDA-MB-436; assay: as above
Description: as §1

[10] = test system: CAL-148; assay: as above
Description: as §1

[11] = test system: BT-474; assay: as above
Description: as §1

[12] = test system: CAL-51; assay: as above
Description: as §1

[13] = test system: HCC1599; assay: as above
Description: as §1

[14] = test system: BT-549; assay: as above
Description: as §1

[15] = test system: HCC1143; assay: as above
Description: as §1

[16] = test system: SK-BR-3; assay: as above
Description: as §1

[17] = test system: MDA-MB-453; assay: as above
Description: as §1

[18] = test system: MDA-MB-231; assay: as above
Description: as §1

[19] = test system: MFM-223; assay: normalised viability (% of control), CellTiter-Blue; higher = more viable cells (about 100 = DMSO control)
Outline: (§2)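 Normalised viability is given for a single listed concentration of the series. In 384-well plates, breast cancer cell lines were incubated 72 h with compound, then read with CellTiter-Blue (2 h, 37 °C) at 560/590 nm. Per-plate scaling set vehicle to 100 and a positive kill control to 0, with Z'-factor quality control.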

[20] = test system: DU-4475; assay: as above
Outline: as §2

[21] = test system: BT-474; assay: as above
Outline: as §2

[22] = test system: BT-549; assay: as above
Outline: as §2

[23] = test system: MDA-MB-453; assay: as above
Outline: as §2

Molecule `COc1ccc(-c2cc3c(C)nc(N)nc3n([C@H]3CC[C@H](OCCO)CC3)c2=O)cn1` has a normalised viability ([1]; 1 nM) of 75.8%, a normalised viability ([2]; 1 nM) of 105% and a normalised viability ([3]; 1 nM) of 102%. For the same molecule, the normalised viability ([4]; 1 nM) was 90.5%, the normalised viability ([5]; 1 nM) was 120% and the normalised viability ([6]; 1 nM) was 106%. The normalised viability ([7]; 1 nM) was 104%, the normalised viability ([8]; 1 nM) was 100% and the normalised viability ([9]; 1 nM) was 103%. The normalised viability ([10]; 1 nM) was 104%, the normalised viability ([11]; 1 nM) was 100% and the normalised viability ([12]; 1 nM) was 95.4%. The normalised viability ([13]; 1 nM) was 130%, the normalised viability ([14]; 1 nM) was 96.5% and the normalised viability ([15]; 1 nM) was 106%. It also gave a normalised viability ([16]; 1 nM) of 86.5%, a normalised viability ([17]; 1 nM) of 87.1% and a normalised viability ([18]; 1 nM) of 118%. The normalised viability ([19]; 100 nM) was 68.8%, the normalised viability ([20]; 10 nM) was 103% and the normalised viability ([21]; 100 nM) was 67.8%. It also gave a normalised viability ([22]; 100 nM) of 66.9% and a normalised viability ([23]; 10 nM) of 86.2%.
`O=C(NC[C@H](O)CO)c1ccncc1Nc1ccc(I)cc1F` showed a normalised viability ([1]; 1 nM) of 103%, a normalised viability ([2]; 1 nM) of 92.1% and a normalised viability ([3]; 1 nM) of 97.9%. The normalised viability ([4]; 1 nM) was 87.6%, the normalised viability ([5]; 1 nM) was 81.3% and the normalised viability ([6]; 1 nM) was 92.6%. For the same molecule, the normalised viability ([7]; 1 nM) was 104%, the normalised viability ([8]; 1 nM) was 111% and the normalised viability ([9]; 1 nM) was 124%. The normalised viability ([10]; 1 nM) was 92.3%, the normalised viability ([11]; 1 nM) was 96.8% and the normalised viability ([12]; 1 nM) was 99.6%. The normalised viability ([13]; 1 nM) was 108%, the normalised viability ([14]; 1 nM) was 111% and the normalised viability ([15]; 1 nM) was 87.6%. It also gave a normalised viability ([16]; 1 nM) of 92.1%, a normalised viability ([17]; 1 nM) of 87.9% and a normalised viability ([18]; 1 nM) of 92.5%. The normalised viability ([19]; 100 nM) was 85.4%, the normalised viability ([20]; 10 nM) was 63.7% and the normalised viability ([21]; 100 nM) was 110%. The normalised viability ([22]; 100 nM) was 101% and the normalised viability ([23]; 10 nM) was 88.7%.
`Nc1nc(=O)c2c([nH]1)NCC(CNc1ccc(C(=O)N[C@@H](CCC(=O)O)C(=O)O)cc1)N2C=O` (mixture of isomers) [Folinic acid] was tested, and the normalised viability ([1]; 0.099 nM) was 131%, the normalised viability ([2]; 0.099 nM) was 98.4% and the normalised viability ([3]; 0.099 nM) was 105%. For the same molecule, the normalised viability ([4]; 0.099 nM) was 95.9%, the normalised viability ([5]; 0.099 nM) was 95.4% and the normalised viability ([6]; 0.099 nM) was 113%. The normalised viability ([7]; 0.099 nM) was 117%, the normalised viability ([8]; 0.099 nM) was 105% and the normalised viability ([9]; 0.099 nM) was 113%. It also gave a normalised viability ([10]; 0.099 nM) of 102%, a normalised viability ([11]; 0.099 nM) of 91.7% and a normalised viability ([12]; 0.099 nM) of 92.7%. It also gave a normalised viability ([13]; 0.099 nM) of 117%, a normalised viability ([14]; 0.099 nM) of 94.1% and a normalised viability ([15]; 0.099 nM) of 107%. It also gave a normalised viability ([16]; 0.099 nM) of 112%, a normalised viability ([17]; 0.099 nM) of 104% and a normalised viability ([18]; 0.099 nM) of 101%. It also gave a normalised viability ([19]; 9.9 nM) of 95.5%, a normalised viability ([20]; 0.99 nM) of 105% and a normalised viability ([21]; 9.9 nM) of 121%. It also gave a normalised viability ([22]; 9.9 nM) of 101% and a normalised viability ([23]; 0.99 nM) of 104%.
`O=C(Nc1c[nH]nc1-c1nc2ccc(CN3CCOCC3)cc2[nH]1)NC1CC1` [AT9283] showed a normalised viability ([1]; 1 nM) of 103%, a normalised viability ([2]; 1 nM) of 88.9% and a normalised viability ([3]; 1 nM) of 102%. The normalised viability ([4]; 1 nM) was 95.6%, the normalised viability ([5]; 1 nM) was 87.1% and the normalised viability ([6]; 1 nM) was 95.5%. The normalised viability ([7]; 1 nM) was 114%, the normalised viability ([8]; 1 nM) was 117% and the normalised viability ([9]; 1 nM) was 98.8%. For the same molecule, the normalised viability ([10]; 1 nM) was 91.3%, the normalised viability ([11]; 1 nM) was 96.6% and the normalised viability ([12]; 1 nM) was 107%. For the same molecule, the normalised viability ([13]; 1 nM) was 101%, the normalised viability ([14]; 1 nM) was 98.5% and the normalised viability ([15]; 1 nM) was 87.1%. The normalised viability ([16]; 1 nM) was 104%, the normalised viability ([17]; 1 nM) was 100% and the normalised viability ([18]; 1 nM) was 91.6%. It also gave a normalised viability ([19]; 100 nM) of 64%, a normalised viability ([20]; 10 nM) of 97.5% and a normalised viability ([21]; 100 nM) of 112%. It also gave a normalised viability ([22]; 100 nM) of 86% and a normalised viability ([23]; 10 nM) of 82.5%.

From the supplement of paper PMC4862054
